Results as given in PubChem BioAssay AID2060898 (Molecular Pharmacology Branch, DTP, NCI, 2025).
pIC50: −log10 of the molar value.

Test system: 616215-338-R-J1-PDC complex spheroid viability
Assay: Anticancer human tumor 616215-338-R-J1-PDC patient-derived colon adenocarcinoma cell line growth inhibition [RAS]
Details: for pIC50: curve of first compound; for viability, T/C: stronger effect = lower value; active means viability on the fitted dose curve at most 10% of control; inactive means the rest
How it was run: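 Multi-cell-type spheroids: tumor cells plus HUVEC endothelial cells and mesenchymal stem cells. RAS-pathway inhibitors were combined with targeted agents, each dosed in half-log steps down from clinical Cmax, or from 10 microM when Cmax was unknown.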

[1] = second compound 0.0316 µM, first compound 0.0316 µM
[2] = second compound 0.0316 µM, first compound 0.1 µM
[3] = second compound 0.0316 µM, first compound 0.316 µM
[4] = second compound 0.0316 µM, first compound 1 µM
[5] = second compound 0.1 µM, first compound 0.0316 µM
[6] = second compound 0.1 µM, first compound 0.1 µM
[7] = second compound 0.1 µM, first compound 0.316 µM
[8] = second compound 0.1 µM, first compound 1 µM
[9] = second compound 0.316 µM, first compound 0.0316 µM
[10] = second compound 0.316 µM, first compound 0.1 µM
[11] = second compound 0.316 µM, first compound 0.316 µM
[12] = second compound 0.316 µM, first compound 1 µM
[13] = second compound 1 µM, first compound 0.0316 µM
[14] = second compound 1 µM, first compound 0.1 µM
[15] = second compound 1 µM, first compound 0.316 µM
[16] = second compound 1 µM, first compound 1 µM
[17] = second compound 3.16 µM, first compound 0.0316 µM
[18] = second compound 3.16 µM, first compound 0.1 µM
[19] = second compound 3.16 µM, first compound 0.316 µM
[20] = second compound 3.16 µM, first compound 1 µM
[21] = second compound 10 µM, first compound 0.0316 µM
[22] = second compound 10 µM, first compound 0.1 µM
[23] = second compound 10 µM, first compound 0.316 µM
[24] = second compound 10 µM, first compound 1 µM
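Further: spheroids exposed to agents for seven days before viability readout.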
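Wherever viability, T/C is given: 100% = DMSO vehicle control viability.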

C=CC(=O)N1CCN(c2nc(OCC3CCCN3C)nc3c(F)c(-c4nc(N)cc(C)c4C(F)(F)F)c(Cl)cc23)C(C)C1 (centres undefined) + C#Cc1c(F)ccc2cc(O)cc(-c3ncc4c(N5CC6CCC(C5)N6)nc(OCC56CCCN5CC(F)C6)nc4c3F)c12
inactive: viability, T/C (second compound 0.0316 µM, first compound 0.00316 µM) 107% | viability, T/C (second compound 0.0316 µM, first compound 0.01 µM) 112% | viability, T/C [1] 101% | viability, T/C [2] 106% | viability, T/C [3] 100% | viability, T/C [4] 104% | viability, T/C (second compound 0.1 µM, first compound 0.00316 µM) 121% | viability, T/C (second compound 0.1 µM, first compound 0.01 µM) 105% | viability, T/C [5] 109% | viability, T/C [6] 107% | viability, T/C [7] 108% | viability, T/C [8] 102% | viability, T/C (second compound 0.316 µM, first compound 0.00316 µM) 112% | viability, T/C (second compound 0.316 µM, first compound 0.01 µM) 104% | viability, T/C [9] 109% | viability, T/C [10] 112% | viability, T/C [11] 107% | viability, T/C [12] 112% | viability, T/C (second compound 1 µM, first compound 0.00316 µM) 122% | viability, T/C (second compound 1 µM, first compound 0.01 µM) 123% | viability, T/C [13] 114% | viability, T/C [14] 120% | viability, T/C [15] 124% | viability, T/C [16] 109% | viability, T/C (second compound 3.16 µM, first compound 0.00316 µM) 125% | viability, T/C (second compound 3.16 µM, first compound 0.01 µM) 107% | viability, T/C [17] 109% | viability, T/C [18] 112% | viability, T/C [19] 109% | viability, T/C [20] 105% | viability, T/C (second compound 10 µM, first compound 0.00316 µM) 102% | viability, T/C (second compound 10 µM, first compound 0.01 µM) 93.8% | viability, T/C [21] 92.8% | viability, T/C [22] 99.3% | viability, T/C [23] 110% | viability, T/C [24] 93%
< 6.00: pIC50 (second compound 0.0316 µM) | pIC50 (second compound 0.1 µM) | pIC50 (second compound 0.316 µM) | pIC50 (second compound 1 µM) | pIC50 (second compound 3.16 µM) | pIC50 (second compound 10 µM)

CC(=O)OC12COC1CC(O)C1(C)C(=O)C(O)C3=C(C)C(OC(=O)C(O)C(NC(=O)OC(C)(C)C)c4ccccc4)CC(O)(C(OC(=O)c4ccccc4)C21)C3(C)C (centres undefined) + C#Cc1c(F)ccc2cc(O)cc(-c3ncc4c(N5CC6CCC(C5)N6)nc(OCC56CCCN5CC(F)C6)nc4c3F)c12
> 7.50: pIC50 (second compound 0.0316 µM) | pIC50 (second compound 0.1 µM) | pIC50 (second compound 0.316 µM) | pIC50 (second compound 1 µM) | pIC50 (second compound 3.16 µM) | pIC50 (second compound 10 µM)
inactive: viability, T/C [1] 26.7% | viability, T/C [2] 23.1% | viability, T/C [3] 18.6% | viability, T/C [4] 18.8% | viability, T/C (second compound 0.0316 µM, first compound 3.16 µM) 22.8% | viability, T/C (second compound 0.0316 µM, first compound 10 µM) 23% | viability, T/C [5] 26.2% | viability, T/C [6] 23.6% | viability, T/C [7] 17.9% | viability, T/C [8] 18% | viability, T/C (second compound 0.1 µM, first compound 3.16 µM) 25.9% | viability, T/C (second compound 0.1 µM, first compound 10 µM) 23.3% | viability, T/C [9] 29.3% | viability, T/C [10] 21.3% | viability, T/C [11] 18% | viability, T/C [12] 18.1% | viability, T/C (second compound 0.316 µM, first compound 3.16 µM) 22.4% | viability, T/C (second compound 0.316 µM, first compound 10 µM) 22.1% | viability, T/C [13] 23% | viability, T/C [14] 19.6% | viability, T/C [15] 20.9% | viability, T/C [16] 17.1% | viability, T/C (second compound 1 µM, first compound 3.16 µM) 19.1% | viability, T/C (second compound 1 µM, first compound 10 µM) 19.4% | viability, T/C [17] 20.7% | viability, T/C [18] 17.4% | viability, T/C [19] 15.9% | viability, T/C [20] 15.1% | viability, T/C (second compound 3.16 µM, first compound 3.16 µM) 17.9% | viability, T/C (second compound 3.16 µM, first compound 10 µM) 23.4% | viability, T/C [21] 14.5% | viability, T/C [22] 14.9% | viability, T/C [23] 16.1% | viability, T/C [24] 13% | viability, T/C (second compound 10 µM, first compound 3.16 µM) 17.5% | viability, T/C (second compound 10 µM, first compound 10 µM) 12.3%
